Experimental data: US20060069132A1, “Azolecarboxamide herbicides” (priority 2004, published 2006)

Tests used:
barnyardgrass [1] = test: Test B pre-/postemergence herbicide test; format: in vivo, Echinochloa crus-galli; conditions: for Plant response rating, Barnyardgrass: 500 g ai/ha
Method in brief: (§1)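 Herbicidal effect was judged by eye on a 0–100 scale after plants stood 13 to 15 days in the greenhouse following pre- or postemergence treatment with surfactant-containing formulations.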

Surinam grass = test: Test B pre-/postemergence herbicide test; format: in vivo, Urochloa decumbens
Method in brief: (§2)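 Formulation: non-phytotoxic solvent mix with surfactant. Timing: preemergence on seed and postemergence on 2–18 cm plants, applied concurrently. Readout after 13–15 d greenhouse: visual 0–100 control rating against controls.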

cocklebur = test: Test B pre-/postemergence herbicide test; format: in vivo, Xanthium strumarium
Method in brief: as §1

corn = test: Test B pre-/postemergence herbicide test; format: in vivo, Zea mays
Method in brief: as §2

large crabgrass = test: Test B pre-/postemergence herbicide test; format: in vivo, Digitaria sanguinalis
Method in brief: as §2

giant foxtail = test: Test B pre-/postemergence herbicide test; format: in vivo, Setaria faberi
Method in brief: as §2

lambsquarters = test: Test B pre-/postemergence herbicide test; format: in vivo, Chenopodium album
Method in brief: as §2

morningglory = test: Test B pre-/postemergence herbicide test; format: in vivo, Ipomoea coccinea; conditions: for Plant response rating, Morningglory: 500 g ai/ha
Method in brief: as §1

pigweed = test: Test B pre-/postemergence herbicide test; format: in vivo, Amaranthus retroflexus
Method in brief: as §2

velvetleaf = test: Test B pre-/postemergence herbicide test; format: in vivo, Abutilon theophrasti
Method in brief: as §2

blackgrass = test: Test B postemergence herbicide test; format: in vivo, Alopecurus myosuroides; conditions: scale 0 (no effect) to 100 (complete control)
Method in brief: (§3)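 Treated at 2-leaf (paddy) or 1–4-leaf, 2–18 cm (postemergence); greenhouse 13–15 d; visual score vs control, 0 none to 100 complete control; dash = not tested.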

wheat = test: Test B postemergence herbicide test; format: in vivo, Triticum aestivum; set-up: key to Wheat plant response rating: 0 = no effect, 100 = complete control; conditions: scale 0 (no effect) to 100 (complete control)
Method in brief: (§4)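 Visual ratings, 0 (no effect) to 100 (complete control), made versus controls after 13–15 d greenhouse. Paddy plants treated at 2-leaf stage; postemergence plants at 1- to 4-leaf stage, 2–18 cm tall.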

wild oat = test: Test B postemergence herbicide test; format: in vivo, Avena fatua; conditions: scale 0 (no effect) to 100 (complete control)
Method in brief: as §4

rice [2] = test: Test B flooded paddy test; format: in vivo, Oryza sativa; conditions: 1000 g ai/ha, visual rating, scale 0 to 100 (0 no effect, 100 complete control), 13 to 15 days
Method in brief: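 Scale 0–100: zero equals no visible effect, 100 complete control, judged by eye relative to controls. Timing: 13 to 15 days in greenhouse post-treatment. Growth stage at spraying: two leaves (paddy) or one to four leaves, 2–18 cm (postemergence).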

[3] = test system: small flower umbrella sedge; test: Test B flooded paddy test; format: in vivo, Cyperus difformis; conditions: 1000 g ai/ha, visual rating, scale 0 to 100 (0 no effect, 100 complete control), 13 to 15 days
Method in brief: as §3

ducksalad [4] = test: Test B flooded paddy test; format: in vivo, Heteranthera limosa; conditions: 1000 g ai/ha, visual rating, scale 0 to 100 (0 no effect, 100 complete control), 13 to 15 days
Method in brief: as §3

barnyardgrass [5] = test: Test B flooded paddy test; format: in vivo, Echinochloa crus-galli; conditions: 1000 g ai/ha, visual rating, scale 0 to 100 (0 no effect, 100 complete control), 13 to 15 days
Method in brief: as §3

rice [6] = test: Test C flooded paddy test; format: in vivo, Oryza sativa
Protocol: (§5) At the same time, plants selected from these crop and weed species and also winter barley (Hordeum vulgare L.), blackgrass (Alopecurus myosuroides Huds.), canarygrass (Phalaris minor Retz.), chickweed (Stellaria media (L.) Vill.), downy bromegrass (Bromus tectorum L.), green foxtail (Setaria viridis (L.) Beauv.), Italian ryegrass (Lolium multiflorum Lam.), wheat (Triticum aestivum L.), wild oat (Avenafatua L.) and windgrass (Apera spica-venti (L.) Beauv.) were treated with postemergence applications of some of the test chemicals formulated in the same manner. Plants ranged in height from 2 to 18 cm (1- to 4-leaf stage) for postemergence treatments. Plant species in the flooded paddy test consisted of rice (Oryza sativa), smallflower umbrella sedge (Cyperus difformis L.), ducksalad (Heteranthera limosa (Sw.) Willd.) and barnyardgrass (Echinochloa crus-galli (L.) Beauv.) grown to the 2-leaf stage for testing. Treated plants and controls were maintained in a greenhouse for 12 to 14 days, after which time all species were compared to controls and visually evaluated. Plant response ratings, summarized in Table C, are based on a scale of 0 to 100 where 0 is no effect and 100 is complete control. A dash (-) response means no test result.

[7] = test system: smallflower umbrella sedge; test: Test C flooded paddy test; format: in vivo, Cyperus difformis
Protocol: as §5

ducksalad [8] = test: Test C flooded paddy test; format: in vivo, Heteranthera limosa
Protocol: as §5

barnyardgrass [9] = test: Test C flooded paddy test; format: in vivo, Echinochloa crus-galli
Protocol: as §5

[10] = visual rating 0-100, 0 no effect, 100 complete control, preemergence
[11] = Postemergence, visual rating after 13 to 15 days, scale 0 (no effect) to 100 (complete control)
[12] = postemergence, 125 g ai/ha, visual rating, scale 0 (no effect) to 100 (complete control)
[13] = 500 g ai/ha, visual rating 0-100, 0 no effect, 100 complete control, preemergence
[14] = Postemergence, 500 g ai/ha, visual rating after 13 to 15 days, scale 0 (no effect) to 100 (complete control)
[15] = preemergence, 125 g ai/ha, 0 to 100 scale, 0 is no effect, 100 is complete control
[16] = Postemergence, 500 g ai/ha, visual rating after 13 to 15 days
[17] = postemergence, 125 g ai/ha, visual rating
[18] = 62 g ai/ha, scale 0 to 100 (0 no effect, 100 complete control)
[19] = 125 g ai/ha, scale of 0 to 100, 0 is no effect, 100 is complete control
[20] = 250 g ai/ha, scale of 0 to 100, 0 is no effect, 100 is complete control
[21] = 500 g ai/ha, visual rating after 12 to 14 days, scale 0 to 100 (0 no effect, 100 complete control)

Structure (SMILES): CON=C(C)c1cccc(NC(=O)c2cc(C(C)(C)C)nn2C)c1 [Compound 106]
- Plant response rating, Barnyardgrass (barnyardgrass [1]; [10]): 70
- Plant response rating, Barnyardgrass (barnyardgrass [1]; [11]): 0
- Barnyardgrass plant response rating (barnyardgrass [1]; [12]): 0
- Plant response rating, Surinam Grass (Surinam grass; [13]): 20
- Plant response rating, Surinam Grass (Surinam grass; [14]): 10
- Surinam Grass plant response rating (Surinam grass; [12]): 10
- Plant response rating, Surinam Grass (Surinam grass; [15]): 0
- Plant response rating, Cocklebur (cocklebur; [13]): 0
- Plant response rating, Cocklebur (cocklebur; [14]): 50
- Cocklebur plant response rating (cocklebur; [12]): 20
- Plant response rating, Cocklebur (cocklebur; [15]): 0
- Plant response rating, Corn (corn; [13]): 0
- Plant response rating, Corn (corn; [14]): 10
- Corn plant response rating (corn; [12]): 10
- Plant response rating, Corn (corn; [15]): 0
- Plant response rating, Crabgrass, Large (large crabgrass; [13]): 100
- Plant response rating, Crabgrass, Large (large crabgrass; [14]): 10
- Crabgrass, Large plant response rating (large crabgrass; [12]): 0
- Plant response rating, Crabgrass, Large (large crabgrass; [15]): 90
- Plant response rating, Foxtail, Giant (giant foxtail; [13]): 40
- Plant response rating, Foxtail, Giant (giant foxtail; [14]): 0
- Foxtail, Giant plant response rating (giant foxtail; [12]): 0
- Plant response rating, Foxtail, Giant (giant foxtail; [15]): 10
- Plant response rating, Lambsquarters (lambsquarters; [13]): 100
- Plant response rating, Lambsquarters (lambsquarters; [14]): 90
- Lambsquarters plant response rating (lambsquarters; [12]): 50
- Plant response rating, Lambsquarters (lambsquarters; [15]): 0
- Plant response rating, Morningglory (morningglory; [10]): 10
- Plant response rating, Morningglory (morningglory; [11]): 10
- Morningglory plant response rating (morningglory; [12]): 10
- Plant response rating, Pigweed (pigweed; [13]): 70
- Plant response rating, Pigweed (pigweed; [14]): 20
- Pigweed plant response rating (pigweed; [12]): 10
- Plant response rating, Pigweed (pigweed; [15]): 0
- Plant response rating, Velvetleaf (velvetleaf; [13]): 0
- Plant response rating, Velvetleaf (velvetleaf; [14]): 20
- Velvetleaf plant response rating (velvetleaf; [12]): 0
- Plant response rating, Velvetleaf (velvetleaf; [15]): 0
- Plant response rating, Blackgrass (blackgrass; [16]): 0
- Blackgrass plant response rating (blackgrass; [17]): 0
- Plant response rating, Wheat (wheat; [16]): 0
- Wheat plant response rating (wheat; [17]): 0
- Plant response rating, Oat, Wild (wild oat; [16]): 20
- Oat, Wild plant response rating (wild oat; [17]): 10
- Rice plant response rating (rice [2]): 0
- Sedge, Umbrella plant response rating [3]: 90
- Ducksalad plant response rating (ducksalad [4]): 80
- Barnyardgrass plant response rating (barnyardgrass [5]): 0
- Rice plant response rating (rice [6]; [18]): 0
- Rice plant response rating (rice [6]; [19]): 0
- Rice plant response rating (rice [6]; [20]): 0
- Plant response rating, Rice (rice [6]; [21]): 20
- Sedge, Umbrella plant response rating [7, 18]: 0
- Sedge, Umbrella plant response rating [7, 19]: 0
- Sedge, Umbrella plant response rating [7, 20]: 30
- Plant response rating, Sedge, Umbrella [7, 21]: 80
- Ducksalad plant response rating (ducksalad [8]; [18]): 0
- Ducksalad plant response rating (ducksalad [8]; [19]): 0
- Ducksalad plant response rating (ducksalad [8]; [20]): 0
- Plant response rating, Ducksalad (ducksalad [8]; [21]): 0
- Barnyardgrass plant response rating (barnyardgrass [9]; [18]): 0
- Barnyardgrass plant response rating (barnyardgrass [9]; [19]): 0
- Barnyardgrass plant response rating (barnyardgrass [9]; [20]): 0
- Plant response rating, Barnyardgrass (barnyardgrass [9]; [21]): 0
